{"source": "patent US10092643B2", "about": "“Prophylactic and immunomodulatory compositions and uses” (Kherion Technology Limited, priority 2005, dated 2018)", "key": {"[1]": {"test_system": "Mtb specific T cells", "assay": "expansion of Mtb specific T cells after S1P administration to TB-infected macrophages", "type": "cell-based", "conditions": "S1P administered to TB-infected macrophages"}, "[2]": {"test_system": "macrophages and epithelial cells", "assay": "S1P given before infection: control of infection by macrophages and epithelial cells", "type": "cell-based", "conditions": "S1P administered before infection"}, "[3]": {"test_system": "macrophagic phospholipase D (PLD)", "conditions": "cited from earlier work"}, "[4]": {"test_system": "Mtb-infected macrophages", "conditions": "cited from earlier work"}, "[5]": {"test_system": "Mycobacterium tuberculosis", "conditions": "human macrophages; concentration close to physiologic ones; cited from earlier work"}, "[6]": {"test_system": "Mycobacterium tuberculosis", "conditions": "MTB-infected mice, intravenously injected; cited from earlier work"}, "[7]": {"test_system": "dendritic cells", "conditions": "administered to dendritic cells in vitro; cited from earlier work"}, "[8]": {"test_system": "T cells", "conditions": "Jin et al., Blood 2003; cited from earlier work"}, "[9]": {"assay": "safety of S1P administration in mice", "conditions": "levels at which immunoregulatory activity can be measured"}, "[10]": {"test_system": "M. tuberculosis (Erdman)", "assay": "S1P as adjuvant for BCG vaccine in mice (immunogenicity and protection protocol)", "conditions": "protocol to be followed"}}, "data": [{"smiles": "CCCCCCCCCCCCC/C=C/C(O)C(N)COP(=O)(O)O", "note": "[S1P, D-erythro-sphingosine 1-phosphate]", "values": [{"measurement": "expansion of Mtb specific T cells", "setting": "[1]", "result": "induces expansion of Mtb specific T cells"}, {"measurement": "capacity to control an infection", "setting": "[2]", "result": "increases the capacity of macrophages and epithelial cells to control an infection"}, {"measurement": "PLD activity in macrophages", "setting": "[3]", "result": "increase PLD activity in macrophages"}, {"measurement": "phagolysosomal fusion", "setting": "[4]", "result": "promote phagolysosomal fusion"}, {"measurement": "antimicrobial activity / intracellular killing of TB", "setting": "[5]", "result": "induce antimicrobial activity in human macrophages leading to the intracellular killing of TB"}, {"measurement": "mycobacterial growth", "setting": "[6]", "result": "significantly reduced"}, {"measurement": "pulmonary tissue damage", "setting": "[6]", "result": "significantly reduced"}, {"measurement": "secretion of cytokine profiles (Th1/Th2 responses)", "setting": "[7]", "result": "alter the secretion of cytokine profiles"}, {"measurement": "activation and proliferation of T cells", "setting": "[8]", "result": "inhibit activation and proliferation of T cells"}, {"measurement": "safety", "setting": "[9]", "result": "appears safe"}, {"measurement": "properties as a vaccine adjuvant", "setting": "[10]", "result": "novel, unexpected and advantageous properties as a vaccine adjuvant"}]}]}
